For the first data set, the system named is insecticide-susceptible Drosophila melanogaster (Canton-S strain). Type of data set: in vivo. The settings on record: Canton-S; by 2-hr, lasting through 24-hr, in all bioassay replicates. As to the method:
The insecticide-susceptible Canton-S strain of Drosophila was obtained from the Bloomington Drosophila stock center (Indiana University, Bloomington, Ind.), and used exclusively in all studies. Flies were reared in 100-ml vials capped with acetate plugs (Fisher Scientific; Suwannee, Ga.) on a JAZZ-MIX diet (Fisher) prepared with a 2:1 ratio of water to apple juice. Flies were reared on a 12:12 photocycle at 24° C. and ambient relative humidity. Mixed-sex adults, less than 1-wk old, were used in bioassays.
Flies were briefly anesthetized in rearing vials with a pulse of CO2 and transferred to a CO2 flowbed (Genesee Scientific; San Diego, Calif.). Using a camel hair brush and a 5×5 cm sheet of rice paper, ten flies were placed into 7.0 ml dram vials. Prior to adding flies, each vial received a 0.5 cm^3 block of rearing diet that had been sufficiently dried on a paper towel to remove excessive moisture. The vials were then capped with open-top septum caps (Fisher) that were covered with fine mesh. The mesh was applied to the septum caps in advance using hot glue; it prevented fly escape but readily permitted gas exchange. The flies were allowed 1-hr to recover from the CO2 anesthesia. After one hour, single vials with flies were placed into 0.5 L glass jars, along with a filter paper tent (see FIG. 1). In a fume hood, filter paper tents were treated with insecticide dilutions or acetone for controls. The jars were then rapidly closed tightly with a metal lid. After 24 hours of exposure, mortality was scored with the aid of a magnifying glass.
All test compounds and solvents were >99% purity, and were purchased from Sigma-Aldrich Chemical (Milwaukee, Wis.). See Table 1 for a listing of the test compounds and their structures. Insecticide stock solutions were prepared at a standard concentration of 100 μg/μl in analytical grade acetone. For liquid insecticidal compounds, density in mg/μl was used to calculate weight on a per-volume basis. Stock solutions were held at −20° C. in sealed amber vials. In bioassay jars, filter paper tents were treated with stock volumes ranging from 2 to 20 μl, depending on the inherent toxicity of the test compound. These volumes of insecticide stock provided test concentrations of 200 to 2000 μg insecticide per replicate jar. A range of 4-5 concentrations plus a control were tested for each insecticide, and each range was repeated five times over at least three days. Controls received a volume of acetone identical to the highest insecticide volume that was tested (i.e., 10 μl for menthofuran; 20 μl for all other insecticides). Between uses, bioassay jars and lids were washed in a dishwasher, then baked 12-16 hr at 90° C. in a drying oven.
Probit and regression analyses were performed using the PROC PROBIT and PROC REG procedures, respectively. […] If control mortality ever exceeded 10% in a given replicate, that replicate was discarded.
Four Drosophila strains were used, all obtained from the Bloomington Drosophila Stock Center (Indiana University; Bloomington, Ind.). The Canton-S strain was used as the insecticide-susceptible standard. The Hikone-R strain is metabolically-resistant with elevated cytochrome P450 levels (Waters et al., 1984; Sundseth et al., 1989; Le Goff et al., 2003; Festucci-Buselli et al., 2005). Hikone-R is resistant to a number of insecticides, including malathion, DDT and neonicotinoids (Sundseth et al., 1989; Daborn et al., 2001). Two resistant neurological-mutant strains were also tested. […] Flies were reared in 100-ml vials capped with acetate plugs (Fisher Scientific; Suwanee, Ga.) on a commercial diet (JAZZ-MIX; Fisher Scientific). Flies were reared on a 12:12 photocycle at 24° C. and 60% relative humidity. Mixed-sex adults, less than 1-wk old, were used in bioassays.
On to `O=COCCOC=O` [EGDF, ethylene glycol di-formate], for which the knockdown was determined as 100%.

The data set is the same for the next values; noted with them: Table 1; Canton-S, 24 hr exposure, probit analysis.
Turning to methyl acetate, the “Slope ± Std. Error (best-fit probit mortality line)” value was found to be 2.86 ± 0.91.

The data set is the same for the next values; noted with them: in vivo.
For `CCCCCCOC(C)=O` [HEXYL acetate, hexyl acetate], the “LC50 (95% CL)” value is recorded as 1666.0 (1582.0 − 1755.0) μg/jar. Same read-out and setting: with `CCCC(=O)OCC` [ETHYL butyrate, ethyl butyrate] the figure was 2034.0 (ND) μg/jar; with `c1ccc2[nH]ccc2c1` [INDOLE, indole], 2769.0 (2137.0 − 7873.0) μg/jar; with `CC(=O)OC(C)(C)C` [t-BUTYL acetate, t-butyl acetate], 2134.0 (1943.0 − 2598.0) μg/jar.

In the case of `CCCCC(=O)OCC` [ETHYL valerate, ethyl valerate], the “LC50 (95% CL)” value is recorded as 2092.0 (1837.0 − 2670.0) μg/jar. Same read-out and setting: under `CCOC(C)=O` [ETHYL acetate, ethyl acetate] stands 3530.0 (2488.0 − 12723.0) μg/jar. As to `CCO` [ethanol], the “mortality elicited by solvent carrier” value is “No mortality”. In the case of `CCCCOC(C)=O` [n-BUTYL acetate, n-butyl acetate], the “LC50 (95% CL)” value is given as 1821.0 (1730.0 − 1930.0) μg/jar.

For `CCCOC(=O)CCC` [PROPYL butyrate, propyl butyrate], the “LC50 (95% CL)” value is recorded as 2035.0 (ND) μg/jar. The same measure, in the same setting: with `CCCC(=O)OC` [METHYL butyrate, methyl butyrate] the figure was 2026.0 (1872.0 − 2314.0) μg/jar; with `Cc1oc2ccccc2c1C`, 1960.0 (1543.0 − 2452.0) μg/jar. The same measure, in the same setting: with methyl acetate the figure was 2268.0 (ND) μg/jar; with `CC(=O)OC(C)C` [ISO-PROPYL acetate, iso-propyl acetate], 1611.0 (1458.0 − 1782.0) μg/jar. On the same count and under the same terms, under `CCC(=O)OC` [METHYL propionate, methyl propionate] stands 2391.0 (2076.0 − 3433.0) μg/jar. For `CCOC(=O)CC` [ETHYL propionate, ethyl propionate], the “LC50 (95% CL)” value is recorded as 3395.0 (2439.0 − 9039.0) μg/jar. For the compound `CCCCCOC(C)=O` [PENTYL acetate, pentyl acetate], the “LC50 (95% CL)” value is listed as 1792.0 (1658.0 − 1987.0) μg/jar. Still for that read-out and setting: under `CCCOC(C)=O` [PROPYL acetate, propyl acetate] stands 2056.0 (ND) μg/jar.

Turning to `CCCCCC` [hexane], the “mortality elicited by solvent carrier” value is recorded as “No mortality”. Regarding `CCCCOC(=O)CC` [BUTYL propionate, butyl propionate], the “LC50 (95% CL)” value is on record as 2126.0 (1894.0 − 2670.0) μg/jar. Still for that read-out and setting: under `CCCCC(=O)OC` [METHYL valerate, methyl valerate] stands 2209.0 (1897.0 − 2997.0) μg/jar.

For `CCCOC(=O)CC` [PROPYL propionate, propyl propionate], the “LC50 (95% CL)” value is recorded as 1931.0 (ND) μg/jar.

Staying with this data set, now noted: solvent carriers tested alone under optimized bioassay conditions.
With `CC(C)O` [isopropanol], the “mortality elicited by solvent carrier” value is 100%. Same read-out and setting: with `CC(C)=O` [acetone] the entry was “No mortality”; with `C[S+](C)[O-]` [DMSO], “No mortality”; with `CO` [methanol], “No mortality”. The same measure, in the same setting: with `COCCO` [methyl cellosolve] the entry was “No mortality”.

The subject of a further data set is metabolically-resistant Hikone-R strain of Drosophila (elevated cytochrome P450). The format is in vivo. The settings on record: Table 2; Hikone-R, 24 hr. As to the method: Four Drosophila strains were used, all obtained from the Bloomington Drosophila Stock Center (Indiana University; Bloomington, Ind.). The Canton-S strain was used as the insecticide-susceptible standard. […] Two resistant neurological-mutant strains were also tested. […] Flies were reared in 100-ml vials capped with acetate plugs (Fisher Scientific; Suwanee, Ga.) on a commercial diet (JAZZ-MIX; Fisher Scientific). […] Mixed-sex adults, less than 1-wk old, were used in bioassays.
All volatile insecticide stocks were prepared at 100 μg/μl in analytical grade acetone. Rather than weigh the highly volatile liquid insecticides (i.e., all compounds except benzothiophene), weight was determined based on the density-volume relationship of each compound. […] The insecticide synergists PBO (piperonyl butoxide) and DEF (SSS-tributyl-phosphoro-trithioate) were obtained from Fluka Chemical Co. (Basel, Switzerland) and Mobay Chemical Co. (Kansas City, Mo.). […] Synergist stocks were prepared at 100 μg/ml in analytical grade acetone.
Briefly, bioassays took place in 0.5-l glass jars with metal lids. Mixed-sex flies were isolated from lab colonies and placed in 4-ml dram vials in groups of ten, along with a dried piece of laboratory diet. The dram vials were capped with open-top septum caps that were covered with fine mesh (held in place by non-toxic glue). For bioassays, the assembled dram vials were placed into the 0.5-l jars along with a folded filter paper “tent” (Whatman #1; Vineland, N.J.). The filter paper was treated with either an insecticide dilution or acetone, the jar was sealed with the metal lid, and the bioassay proceeded for 24-hr at room temperature. Mortality was scored based on a complete lack of movement by the flies. Four concentrations plus an acetone control were tested for all insecticides. Between five and ten replicates were performed for each concentration range on each strain-insecticide combination. Synergist bioassays were performed with a slight modification. Synergist stocks were applied to dram vials at 100 μl per vial to provide assay concentrations of 10 μg per vial. […] After treatment, vials were held at an angle in a fume hood and rotated ¼-turn each minute until the acetone evaporated. Flies and diet were added as above and held for 1-hr. Assays were initiated, run, and scored as above.
Probit analysis was performed using PROC PROBIT in the SAS software package (SAS Institute; Cary, N.C.). If control mortality ever exceeded 10% in a given replicate, that replicate was discarded.
Consider `O=COCCOC=O` [EGDF, ethylene glycol di-formate], for which the “Slope ± Std. Error (probit mortality line)” value came out at 5.02 ± 2.41.

In the case of `COP(=O)(OC)OC=C(Cl)Cl` [Dichlorvos (DDVP), Dichlorvos, reference compound], the “Slope ± Std. Error (probit mortality line)” value is 4.64 ± 0.59.

Take `CN=C=S` [Methylisothiocyanate (MITC), Methylisothiocyanate, reference compound]: the “Slope ± Std. Error (probit mortality line)” value stood at 4.30 ± 0.62. The same measure, in the same setting: under `O=CO` [Formic Acid, reference compound] stands 3.29 ± 1.02.

The data set is the same for the next values; noted with them: Table 3; Hikone-R, no synergist, 24 hr.
As to `O=COCCOC=O` [EGDF, ethylene glycol di-formate], the “Slope ± Std. Error (probit mortality line)” value was determined as 5.02 ± 2.41.

The data set is the same for the next values; noted with them: significance at p<0.05, method of Robertson and Preisler.
Consider `O=COCCOC=O` [EGDF, ethylene glycol di-formate], for which the “response of Hikone-R relative to Canton-S (LC50 ratio Hikone÷Canton, FIG. 5), in words” value was “significant resistance”. The same measure, in the same setting: with `CN=C=S` [Methylisothiocyanate (MITC), Methylisothiocyanate, reference compound] the entry was “significantly enhanced susceptibility”.

Source of the values: patent US20070154393A1, “Bioassay for volatile low molecular weight insecticides and methods of use” (priority 2005, published 2007).
